We go through 25 compounds from patent US10759816B2, “Heterocyclic compounds as RSV inhibitors” (Enanta Pharmaceuticals, Inc., priority 2016, dated 2020).

The subject of this experiment is genotype A, "Long" strain RSV. In words: RSV-A in vitro cytoprotection assay in HEp-2 cells (ATPlite readout of cell viability). In kind it is cell-based, Human respiratory syncytial virus. The conditions noted are these: human respiratory syncytial virus, HEp-2, HEp-2 cells, genotype A “Long” strain RSV, cytoprotection; read-out: Human RSV-A (“Long” strain) EC50. In short, it runs like this: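 Cytoprotection measured as ATP-based luminescence (ATPlite) after 4-day incubation of RSV Long-infected HEp-2 cells (8,000/well, 10% FBS DMEM) with 2-fold serial compound dilutions in duplicate. Identically treated virus-free plate gives cytotoxicity; EC50 calculated from viability.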
A general note: In ATP-based viability assays light output follows the ATP content of the culture.
The EC50 is the concentration giving half of the maximal effect. On to `Cc1cccc(F)c1NC(=O)c1cc2c(s1)-c1ccccc1N(C(=O)c1ccc(-c3c[nH]c4ccccc34)cc1)CC2` [Example 272], for which the EC50 was above 800 nM.
Then `CCn1nccc1-c1cccc(C(=O)N2CCc3cc(C(=O)Nc4c(C)cccc4F)oc3-c3ccccc32)n1` [Example 273], with above 800 nM; and `Cc1cccc(F)c1NC(=O)c1cc2c(o1)-c1ccccc1N(C(=O)c1cccc(-c3c[nH]c4ncccc34)n1)CC2` [Example 274], with below 400 nM; and `Cc1cccc(F)c1NC(=O)c1cc2c(o1)-c1ccccc1N(C(=O)c1cccc(-c3c[nH]nc3C3CC3)n1)CC2` [Example 275], with below 400 nM.
Then `O=C(NC1CC1)c1cc2c(s1)-c1ccccc1N(C(=O)c1cccc(N3CCOC[C@@H]3c3ccccc3)n1)CC2` [Example 276], with above 800 nM.
Then `O=C(NC1CC1)c1cc2c(s1)-c1ccccc1N(C(=O)c1cccc(N3CCOC[C@H]3c3ccccc3)n1)CC2` [Example 277], with above 800 nM; and `O=C(NC1CC1)c1cc2c(s1)-c1ccccc1N(C(=O)c1cccc(N3CCOc4ccc(F)cc4C3)n1)CC2` [Example 278], with below 400 nM; and `O=C(NC1CC1)c1cc2c(s1)-c1ccccc1N(C(=O)c1cccc(N3CCOc4ccc(Cl)cc4C3)n1)CC2` [Example 279], with below 400 nM.
Consider `COc1ccc2c(c1)CN(c1cccc(C(=O)N3CCc4cc(C(=O)NC5CC5)sc4-c4ccccc43)n1)CCO2` [Example 280], for which the EC50 is below 400 nM.
Then `O=C(NC1CC1)c1cc2c(s1)-c1ccccc1N(C(=O)c1cccc(N3CCOc4cc(Br)ccc4C3)n1)CC2` [Example 281], with below 400 nM.
`COc1ccc2c(c1)OCCN(c1cccc(C(=O)N3CCc4cc(C(=O)NC5CC5)sc4-c4ccccc43)n1)C2` [Example 282]: the EC50 was below 400 nM.
In the case of `O=C(NC1CC1)c1cc2c(s1)-c1ccccc1N(C(=O)c1cccc(N3CCS(=O)(=O)c4ccccc4C3)n1)CC2` [Example 283], the EC50 is below 400 nM.
The value for `O=C(NC1CC1)c1cc2c(s1)-c1ccccc1N(C(=O)c1cccc(N3CCOCC4(CCOCC4)C3)n1)CC2` [Example 284] was below 400 nM; that for `O=C(NC1CC1)c1cc2c(s1)-c1ccccc1N(C(=O)c1cccc(N3CCOCC(C(=O)N4CCOCC4)C3)n1)CC2` (stereo not shown) [Example 285] was above 800 nM.
For `CN(Cc1ccccn1)c1cccc(C(=O)N2CCc3cc(C(=O)NC4CC4)sc3-c3ccccc32)n1` [Example 286], the EC50 was above 800 nM.
With `COc1ccccc1CNc1cccc(C(=O)N2CCc3cc(C(=O)NC4CC4)sc3-c3ccccc32)n1` [Example 287], the EC50 is above 800 nM.
The value for `O=C(NC1CC1)c1cc2c(s1)-c1ccccc1N(C(=O)c1cccc(NCc3ccccn3)n1)CC2` [Example 288] was above 800 nM.
The value for `COc1ccccc1CN(C)c1cccc(C(=O)N2CCc3cc(C(=O)NC4CC4)sc3-c3ccccc32)n1` [Example 289] was above 800 nM; that for `O=C(NC1CC1)c1cc2c(s1)-c1ccccc1N(C(=O)c1cccc(N[C@@H]3CCOC3)n1)CC2` [Example 290] was above 800 nM; that for `O=C(NC1CC1)c1cc2c(s1)-c1ccccc1N(C(=O)c1cccc(NCC3CCOC3)n1)CC2` (stereo not shown) [Example 291] was above 800 nM.
As to `COc1ccccc1[C@H](C)Nc1cccc(C(=O)N2CCc3cc(C(=O)NC4CC4)sc3-c3ccccc32)n1` [Example 292], the half-maximal effective concentration (EC50) was above 800 nM.
The value for `CC(C)(Nc1cccc(C(=O)N2CCc3cc(C(=O)NC4CC4)sc3-c3ccccc32)n1)c1ccccn1` [Example 293] was above 800 nM.
On to `COc1ccc(CN(C)c2cccc(C(=O)N3CCc4cc(C(=O)NC5CC5)sc4-c4ccccc43)n2)cc1` [Example 294], for which the concentration for a half-maximal effect (EC50) is above 800 nM.
Regarding `CN(Cc1cccnc1)c1cccc(C(=O)N2CCc3cc(C(=O)NC4CC4)sc3-c3ccccc32)n1` [Example 295], the EC50 was above 800 nM.
Then `COc1cccc(CN(C)c2cccc(C(=O)N3CCc4cc(C(=O)NC5CC5)sc4-c4ccccc43)n2)c1` [Example 296], with above 800 nM.
